Experimental data as given in ChEMBL document CHEMBL1127905, “Design and synthesis of a prototype model antagonist of tachykinin NK-2 receptor” (Bioorg Med Chem Lett, 1994).

Target: T1, Substance-K receptor (Homo sapiens) (UniProt P21452)
T1 sequence (whole entry): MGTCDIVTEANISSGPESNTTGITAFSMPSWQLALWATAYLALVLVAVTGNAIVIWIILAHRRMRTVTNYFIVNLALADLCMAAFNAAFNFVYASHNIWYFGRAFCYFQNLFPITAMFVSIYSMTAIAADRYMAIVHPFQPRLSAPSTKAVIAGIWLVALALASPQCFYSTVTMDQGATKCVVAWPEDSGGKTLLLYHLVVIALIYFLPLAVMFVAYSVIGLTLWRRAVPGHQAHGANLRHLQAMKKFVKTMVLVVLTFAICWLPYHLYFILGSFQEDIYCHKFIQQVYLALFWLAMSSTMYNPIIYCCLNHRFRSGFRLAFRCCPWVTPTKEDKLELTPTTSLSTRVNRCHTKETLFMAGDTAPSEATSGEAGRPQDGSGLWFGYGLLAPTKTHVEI
Test: Compound was evaluated for binding affinity to human recombinant Tachykinin receptor 2

Activity: 3 µM
SMILES: O=C(Cc1c[nH]c2ccccc12)N[C@@H]1C(=O)N2[C@H](CC[C@H]2C(=O)NCc2ccccc2)C[C@H]1Cc1ccccc1
